Results as given in patent US8952024B2, “Herbicidal pyrimidone derivatives” (E I du Pont de Nemours and Company, priority 2009, dated 2015).

Columns and labels:
Experiment in all cases: Test B pre-/postemergence plant response
Assay type in all cases: in vivo
[1] = test system: green foxtail (Setaria viridis); conditions: for Plant response rating, Foxtail, Green: Postemergence; for Foxtail, Green plant response rating (0 to 100 scale): 62 g ai/ha, postemergence, 0 is no effect, 100 is complete control
Method in brief: (§1)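 Greenhouse herbicide screen. Pre- and postemergence (1- to 4-leaf) spray of compound in solvent/surfactant mixture; loam–sand soil for pre, peat/vermiculite medium for post. Visual control rating 0–100 at 13 to 15 days after treatment.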

[2] = test system: velvetleaf (Abutilon theophrasti); conditions: for Plant response rating, Velvetleaf: Postemergence; for Velvetleaf plant response rating (0 to 100 scale): 62 g ai/ha, postemergence, 0 is no effect, 100 is complete control
Method in brief: as §1

[3] = test system: large crabgrass (Digitaria sanguinalis); conditions: for Plant response rating, Crabgrass, Large: Postemergence; for Crabgrass, Large plant response rating (0 to 100 scale): 62 g ai/ha, postemergence, 0 is no effect, 100 is complete control
Method in brief: as §1

[4] = test system: pigweed (Amaranthus retroflexus); conditions: for Plant response rating, Pigweed: Postemergence; for Pigweed plant response rating (0 to 100 scale): 62 g ai/ha, postemergence, 0 is no effect, 100 is complete control
Method in brief: as §1

[5] = test system: johnsongrass (Sorghum halepense); conditions: for Plant response rating, Johnsongrass: Postemergence; for Johnsongrass plant response rating (0 to 100 scale): 62 g ai/ha, postemergence, 0 is no effect, 100 is complete control
Method in brief: as §1

[6] = test system: lambsquarters (Chenopodium album); conditions: for Plant response rating, Lambsquarters: Postemergence; for Lambsquarters plant response rating (0 to 100 scale): 62 g ai/ha, postemergence, 0 is no effect, 100 is complete control
Method in brief: as §1

[7] = test system: kochia (Kochia scoparia); conditions: for Plant response rating, Kochia: Postemergence; for Kochia plant response rating (0 to 100 scale): 62 g ai/ha, postemergence, 0 is no effect, 100 is complete control
Method in brief: as §1

[8] = test system: wheat (Triticum aestivum); conditions: for Plant response rating, Wheat: Postemergence; for Wheat plant response rating (0 to 100 scale): 62 g ai/ha, postemergence, 0 is no effect, 100 is complete control
Method in brief: as §1

[9] = test system: downy bromegrass (Bromus tectorum); conditions: for Plant response rating, Bromegrass, Downy: Postemergence; for Bromegrass, Downy plant response rating (0 to 100 scale): 62 g ai/ha, postemergence, 0 is no effect, 100 is complete control
Method in brief: as §1

[10] = test system: goosegrass (Eleusine indica); conditions: for Plant response rating, Goosegrass: Postemergence; for Goosegrass plant response rating (0 to 100 scale): 62 g ai/ha, postemergence, 0 is no effect, 100 is complete control
Method in brief: as §1

[11] = test system: woolly cupgrass (Eriochloa villosa); conditions: for Plant response rating, Cupgrass, Woolly: Postemergence; for Cupgrass, Woolly plant response rating (0 to 100 scale): 62 g ai/ha, postemergence, 0 is no effect, 100 is complete control
Method in brief: as §1

[12] = test system: yellow nutsedge (Cyperus esculentus); conditions: for Plant response rating, Nutsedge, Yellow: Postemergence; for Nutsedge, Yellow plant response rating (0 to 100 scale): 62 g ai/ha, postemergence, 0 is no effect, 100 is complete control
Method in brief: as §1

[13] = test system: giant foxtail (Setaria faberii); conditions: for Plant response rating, Foxtail, Giant: Postemergence; for Foxtail, Giant plant response rating (0 to 100 scale): 62 g ai/ha, postemergence, 0 is no effect, 100 is complete control
Method in brief: as §1

[14] = 31 g ai/ha, 0 to 100 scale (0 no effect, 100 complete control)
[15] = 125 g ai/ha, scale 0 to 100 (0 no effect, 100 complete control)
[16] = 250 g ai/ha, scale 0 to 100 (0 no effect, 100 complete control), 13 to 15 days

## O=C1CCCC(O)=C1C(=O)c1cnc(-c2ccccc2)n(C2CCCC2)c1=O [Compound 131]
[1]; 16 g ai/ha, 0 to 100 scale
  Plant response rating, Foxtail, Green: 40
[1]; 13 to 15 days
  Foxtail, Green plant response rating (0 to 100 scale): 90
[1]; [14]
  Plant response rating, Foxtail, Green: 70
[1]; [15]
  Plant response rating, Foxtail, Green: 95
[2]; 16 g ai/ha, 0 to 100 scale
  Plant response rating, Velvetleaf: 70
[2]; 13 to 15 days
  Velvetleaf plant response rating (0 to 100 scale): 85
[2]; [14]
  Plant response rating, Velvetleaf: 80
[2]; [15]
  Plant response rating, Velvetleaf: 98
[3]; 16 g ai/ha, 0 to 100 scale
  Plant response rating, Crabgrass, Large: 65
[3]; 13 to 15 days
  Crabgrass, Large plant response rating (0 to 100 scale): 75
[3]; [14]
  Plant response rating, Crabgrass, Large: 75
[3]; [15]
  Plant response rating, Crabgrass, Large: 80
[4]; 16 g ai/ha, 0 to 100 scale
  Plant response rating, Pigweed: 60
[4]; 13 to 15 days
  Pigweed plant response rating (0 to 100 scale): 95
[4]; [14]
  Plant response rating, Pigweed: 90
[4]; [15]
  Plant response rating, Pigweed: 100
[5]; 16 g ai/ha, 0 to 100 scale
  Plant response rating, Johnsongrass: 0
[5]; 13 to 15 days
  Johnsongrass plant response rating (0 to 100 scale): 25
[5]; [14]
  Plant response rating, Johnsongrass: 5
[5]; [15]
  Plant response rating, Johnsongrass: 50
[6]; 16 g ai/ha, 0 to 100 scale
  Plant response rating, Lambsquarters: 75
[6]; 13 to 15 days
  Lambsquarters plant response rating (0 to 100 scale): 95
[6]; [14]
  Plant response rating, Lambsquarters: 85
[6]; [15]
  Plant response rating, Lambsquarters: 98
[7]; 16 g ai/ha, 0 to 100 scale
  Plant response rating, Kochia: 20
[7]; 13 to 15 days
  Kochia plant response rating (0 to 100 scale): 60
[7]; [14]
  Plant response rating, Kochia: 35
[7]; [15]
  Plant response rating, Kochia: 75
[8]; 16 g ai/ha, 0 to 100 scale
  Plant response rating, Wheat: 0
[8]; 13 to 15 days
  Wheat plant response rating (0 to 100 scale): 0
[8]; [14]
  Plant response rating, Wheat: 0
[8]; [15]
  Plant response rating, Wheat: 0
[9]; 16 g ai/ha, 0 to 100 scale
  Plant response rating, Bromegrass, Downy: 0
[9]; 13 to 15 days
  Bromegrass, Downy plant response rating (0 to 100 scale): 0
[9]; [14]
  Plant response rating, Bromegrass, Downy: 0
[9]; [15]
  Plant response rating, Bromegrass, Downy: 0
[10]; 16 g ai/ha, 0 to 100 scale
  Plant response rating, Goosegrass: 65
[10]; 13 to 15 days
  Goosegrass plant response rating (0 to 100 scale): 65
[10]; [14]
  Plant response rating, Goosegrass: 65
[10]; [15]
  Plant response rating, Goosegrass: 75
[11]; 16 g ai/ha, 0 to 100 scale
  Plant response rating, Cupgrass, Woolly: 10
[11]; 13 to 15 days
  Cupgrass, Woolly plant response rating (0 to 100 scale): 60
[11]; [14]
  Plant response rating, Cupgrass, Woolly: 50
[11]; [15]
  Plant response rating, Cupgrass, Woolly: 65
[12]; 16 g ai/ha, 0 to 100 scale
  Plant response rating, Nutsedge, Yellow: 0
[12]; 13 to 15 days
  Nutsedge, Yellow plant response rating (0 to 100 scale): 25
[12]; [14]
  Plant response rating, Nutsedge, Yellow: 15
[12]; [15]
  Plant response rating, Nutsedge, Yellow: 45
[13]; 16 g ai/ha, 0 to 100 scale
  Plant response rating, Foxtail, Giant: 65
[13]; 13 to 15 days
  Foxtail, Giant plant response rating (0 to 100 scale): 75
[13]; [14]
  Plant response rating, Foxtail, Giant: 75
[13]; [15]
  Plant response rating, Foxtail, Giant: 80

## COCCCn1c(-c2cccc(Br)c2)ncc(C(=O)C2=C(O)CCCC2=O)c1=O [Compound 140]
[1]; 13 to 15 days
  Foxtail, Green plant response rating (0 to 100 scale): 60
[1]; [14]
  Plant response rating, Foxtail, Green: 45
[1]; [15]
  Plant response rating, Foxtail, Green: 85
[1]; [16]
  Plant response rating, Foxtail, Green: 95
[2]; 13 to 15 days
  Velvetleaf plant response rating (0 to 100 scale): 65
[2]; [14]
  Plant response rating, Velvetleaf: 50
[2]; [15]
  Plant response rating, Velvetleaf: 80
[2]; [16]
  Plant response rating, Velvetleaf: 85
[3]; 13 to 15 days
  Crabgrass, Large plant response rating (0 to 100 scale): 65
[3]; [14]
  Plant response rating, Crabgrass, Large: 50
[3]; [15]
  Plant response rating, Crabgrass, Large: 80
[3]; [16]
  Plant response rating, Crabgrass, Large: 90
[4]; 13 to 15 days
  Pigweed plant response rating (0 to 100 scale): 70
[4]; [14]
  Plant response rating, Pigweed: 55
[4]; [15]
  Plant response rating, Pigweed: 75
[4]; [16]
  Plant response rating, Pigweed: 98
[5]; 13 to 15 days
  Johnsongrass plant response rating (0 to 100 scale): 15
[5]; [14]
  Plant response rating, Johnsongrass: 10
[5]; [15]
  Plant response rating, Johnsongrass: 35
[5]; [16]
  Plant response rating, Johnsongrass: 45
[6]; 13 to 15 days
  Lambsquarters plant response rating (0 to 100 scale): 60
[6]; [14]
  Plant response rating, Lambsquarters: 45
[6]; [15]
  Plant response rating, Lambsquarters: 75
[6]; [16]
  Plant response rating, Lambsquarters: 80
[7]; 13 to 15 days
  Kochia plant response rating (0 to 100 scale): 10
[7]; [14]
  Plant response rating, Kochia: 0
[7]; [15]
  Plant response rating, Kochia: 10
[7]; [16]
  Plant response rating, Kochia: 35
[8]; 13 to 15 days
  Wheat plant response rating (0 to 100 scale): 5
[8]; [14]
  Plant response rating, Wheat: 5
[8]; [15]
  Plant response rating, Wheat: 10
[8]; [16]
  Plant response rating, Wheat: 15
[9]; 13 to 15 days
  Bromegrass, Downy plant response rating (0 to 100 scale): 5
[9]; [14]
  Plant response rating, Bromegrass, Downy: 0
[9]; [15]
  Plant response rating, Bromegrass, Downy: 5
[9]; [16]
  Plant response rating, Bromegrass, Downy: 20
[10]; 13 to 15 days
  Goosegrass plant response rating (0 to 100 scale): 65
[10]; [14]
  Plant response rating, Goosegrass: 45
[10]; [15]
  Plant response rating, Goosegrass: 70
[10]; [16]
  Plant response rating, Goosegrass: 85
[11]; 13 to 15 days
  Cupgrass, Woolly plant response rating (0 to 100 scale): 50
[11]; [14]
  Plant response rating, Cupgrass, Woolly: 50
[11]; [15]
  Plant response rating, Cupgrass, Woolly: 65
[11]; [16]
  Plant response rating, Cupgrass, Woolly: 65
[12]; 13 to 15 days
  Nutsedge, Yellow plant response rating (0 to 100 scale): 45
[12]; [14]
  Plant response rating, Nutsedge, Yellow: 10
[12]; [15]
  Plant response rating, Nutsedge, Yellow: 65
[12]; [16]
  Plant response rating, Nutsedge, Yellow: 75
[13]; 13 to 15 days
  Foxtail, Giant plant response rating (0 to 100 scale): 75
[13]; [14]
  Plant response rating, Foxtail, Giant: 65
[13]; [15]
  Plant response rating, Foxtail, Giant: 80
[13]; [16]
  Plant response rating, Foxtail, Giant: 90
